Experimental findings from patent US11459323B2, “Monocyclic β-lactam compound for treating bacterial infection” (MEDSHINE DISCOVERY INC., priority 2018, dated 2022) are described below.

Experiment [1] has as its system K. pneumoniae ATCC BAA-205 (TEM-1/SHV-1/SHV-12). Put plainly: MIC by micro-liquid dilution method (CLSI). It is filed as cell-based, Klebsiella pneumonia. The settings on record: Klebsiella pneumoniae, ATCCBAA205; K. pneumoniae ATCCBAA-205; read-out: MIC.
For experiment [2], the system named is K. pneumoniae ATCC BAA-1705 (KPC-2). Put plainly: MIC by micro-liquid dilution method (CLSI). The format is cell-based, Klebsiella pneumonia. Conditions: Klebsiella pneumoniae, ATCCBAA1705; K. pneumoniae ATCCBAA-1705; read-out: MIC.
Experiment [3] concerns K. pneumoniae ATCC BAA-2470 (NDM-1). Put plainly: MIC by micro-liquid dilution method (CLSI). The settings on record: Klebsiella pneumoniae, ATCCBAA2470; K. pneumoniae ATCCBAA-2470; read-out: MIC. It is filed as cell-based, Klebsiella pneumonia.
Experiment [4] concerns E. coli ATCC BAA-2523 (OXA-48). Put plainly: MIC by micro-liquid dilution method (CLSI). The format is cell-based. Conditions: Escherichia coli, ATCCBAA2523. An excerpt:
(§1) Three strains of Klebsiella pneumonia, K. pneumoniae ATCC BAA-205 (TEM-1/SHV-1/SHV-12), K. pneumoniae ATCC BAA-1705 (KPC-2), K. pneumoniae ATCC BAA-2470 (NDM-1); three strains of Pseudomonas aeruginosa, P. aeruginosa NCTC13437 (VIM-10; VEB-1), P. aeruginosa PA 14 and P. aeruginosa ATCC 35151; four strains of Escherichia coli, E. coli NCTC 13476 (IMP-1 type), E. coli ATCC BAA-2523 (OXA-48), E. coli MG1655Δtol C, E. coli ATCC 25922; one strain of Acinetobacter baumannii, A. baumannii ATCC 17978 and one strain of Staphylococcus aureus, S. aureus NRS384 were used to determine the minimum inhibitory concentration (MIC) of the compounds by micro-liquid dilution method according to the Institute of Clinical and Laboratory Standard (CLSI) requirements.

The next experiment has as its system E. coli MG1655Δtol C. Put plainly: MIC by micro-liquid dilution method (CLSI). It is filed as cell-based. The settings on record: Escherichia coli.
From the text: as §1

A further experiment concerns P. aeruginosa PA 14. Put plainly: MIC by micro-liquid dilution method (CLSI). It is filed as cell-based. Conditions: Pseudomonas aeruginosa, PA14; P. aeruginosa PA 14; read-out: MIC.
From the text: as §1

A further experiment deals with P. aeruginosa ATCC 35151. Put plainly: MIC by micro-liquid dilution method (CLSI). The format is cell-based. The settings on record: Pseudomonas aeruginosa.
In a further experiment the test system is A. baumannii ATCC 17978. Put plainly: MIC by micro-liquid dilution method (CLSI). It is filed as cell-based. The settings on record: Acinetobacter baumannii; A. baumannii ATCC17978; read-out: MIC.
The subject of the next experiment is E. coli ATCC 25922. Put plainly: MIC by micro-liquid dilution method (CLSI). It is filed as cell-based. The settings on record: Escherichia coli.
For experiment [5], the system named is Acinetobacter baumannii ATCC 17978. Put plainly: MIC on Acinetobacter baumannii strains. The format is cell-based. The settings on record: ATCC17978. The source says:
(§2) Twelve strains of Acinetobacter baumannii, A. baumannii ATCC 17978 (ATCC-BAA-1605, ATCC-BAA-1789, ATCC-BAA-1790, ATCC-BAA-1791, ATCC-BAA-1792, ATCC-BAA-1793, ATCC-BAA-1794, ATCC-BAA-1795, ATCC-BAA-1799, ATCC-BAA-1800, ATCC 19606, ATCC 17978) were used to determine the minimum inhibitory concentration (MIC) of the compounds by micro-liquid dilution method according to the Institute of Clinical and Laboratory Standard (CLSI) requirements.

Experiment [6] deals with Acinetobacter baumannii ATCC 19606. Put plainly: MIC on Acinetobacter baumannii strains. It is filed as cell-based. Conditions: ATCC19606.
From the text: as §2

Experiment [7] relates to Acinetobacter baumannii ATCC-BAA-1605. Put plainly: MIC on Acinetobacter baumannii strains. Conditions: ATCCBAA1605, ATCC-BAA-1605, read-out: MIC. It is filed as cell-based.
From the text: as §2

The subject of experiment [8] is Acinetobacter baumannii ATCC-BAA-1789. Put plainly: MIC on Acinetobacter baumannii strains. It is filed as cell-based. The settings on record: ATCCBAA1789.
From the text: as §2

In experiment [9] the test system is Acinetobacter baumannii ATCC-BAA-1790. Put plainly: MIC on Acinetobacter baumannii strains. The format is cell-based. The settings on record: ATCCBAA1790, ATCC-BAA-1790, read-out: MIC.
From the text: as §2

Experiment [10] has as its system Acinetobacter baumannii ATCC-BAA-1791. Put plainly: MIC on Acinetobacter baumannii strains. The settings on record: ATCCBAA1791. It is filed as cell-based.
From the text: as §2

Experiment [11] concerns Acinetobacter baumannii ATCC-BAA-1792. Put plainly: MIC on Acinetobacter baumannii strains. It is filed as cell-based. The settings on record: ATCCBAA1792, ATCC-BAA-1792, read-out: MIC.
From the text: as §2

The subject of experiment [12] is Acinetobacter baumannii ATCC-BAA-1793. Put plainly: MIC on Acinetobacter baumannii strains. It is filed as cell-based.
From the text: as §2

In experiment [13] the test system is Acinetobacter baumannii ATCC-BAA-1794. Put plainly: MIC on Acinetobacter baumannii strains. The format is cell-based. The settings on record: ATCCBAA1794, ATCC-BAA-1794, read-out: MIC.
From the text: as §2

In experiment [14] the test system is Acinetobacter baumannii ATCC-BAA-1795. Put plainly: MIC on Acinetobacter baumannii strains. The format is cell-based. Conditions: ATCCBAA1795.
From the text: as §2

Experiment [15] has as its system Acinetobacter baumannii ATCC-BAA-1799. Put plainly: MIC on Acinetobacter baumannii strains. The settings on record: ATCCBAA1799, ATCC-BAA-1799, read-out: MIC. It is filed as cell-based.
From the text: as §2

Experiment [16] deals with Acinetobacter baumannii ATCC-BAA-1800. Put plainly: MIC on Acinetobacter baumannii strains. The format is cell-based.
From the text: as §2

Experiment [17] has as its system E. coli NCTC 13476 (IMP-1 type). Put plainly: MIC by micro-liquid dilution method (CLSI). It is filed as cell-based. The settings on record: Escherichia coli; E. coli NCTC13476; read-out: MIC.
From the text: as §1

The mark [18] stands for this setting: E. coli ATCCBAA-2523, read-out: MIC.
Setting [19] is: P. aeruginosa ATCC35151, read-out: MIC.
Where [20] appears, read: E. coli ATCC25922, read-out: MIC.
Where [21] appears, read: ATCCBAA1793, ATCC-BAA-1793, read-out: MIC.
The mark [22] stands for this setting: ATCCBAA1800, ATCC-BAA-1800, read-out: MIC.

In brackets after ≈: the same amount, converted by molar mass. Where two headings read alike, the source gives them in different places. Some results are limits rather than exact numbers.

Regarding `CC1(C)[C@H](NC(=O)/C(=N\OCCOc2ccc3c(c2)CCN(C(=N)N)C3)c2csc(N)n2)C(=O)N1OS(=O)(=O)O` [Compound 3], the MIC in [1] was 8 µg/mL (≈ 13.4 µM); in experiment [2], 4 µg/mL (≈ 6.7 µM); in [3], 2 µg/mL (≈ 3.35 µM); in experiment [4] (setting [18]), 0.25 µg/mL (≈ 0.419 µM); against E. coli MG1655Δtol C it was not above 0.0039 µg/mL; with P. aeruginosa PA 14, 4 µg/mL (≈ 6.7 µM). Also, the MIC with P. aeruginosa ATCC 35151 (setting [19]) is 0.0625 µg/mL (≈ 0.105 µM); with A. baumannii ATCC 17978, 2 µg/mL (≈ 3.35 µM); in the experiment on E. coli ATCC 25922 (setting [20]), 0.25 µg/mL (≈ 0.419 µM); in [5], 4 µg/mL (≈ 6.7 µM); in experiment [6] it was 8 µg/mL (≈ 13.4 µM); in experiment [7] it was 16 µg/mL (≈ 26.8 µM). Further, the MIC in experiment [8] turned out to be 16 µg/mL (≈ 26.8 µM); in [9], 16 µg/mL (≈ 26.8 µM); in experiment [10], 16 µg/mL (≈ 26.8 µM); in [11], 16 µg/mL (≈ 26.8 µM); in [12] (setting [21]), 8 µg/mL (≈ 13.4 µM); in experiment [13] it was 8 µg/mL (≈ 13.4 µM). Moreover, the MIC in [14] was 8 µg/mL (≈ 13.4 µM); in experiment [15], 16 µg/mL (≈ 26.8 µM); in [16] (setting [22]), 8 µg/mL (≈ 13.4 µM).
Take `CC1(C)[C@H](NC(=O)/C(=N\OCCOc2ccc3c(c2)CCN(C(=N)NCCCN)C3)c2csc(N)n2)C(=O)N1OS(=O)(=O)O` [Compound 4]: the MIC is 8 µg/mL (≈ 12.2 µM) in [1]; 1 µg/mL (≈ 1.53 µM) in experiment [2]; 0.5 µg/mL (≈ 0.765 µM) in experiment [3]; not above 0.125 µg/mL in experiment [4]; not above 0.125 µg/mL in the experiment on E. coli MG1655Δtol C; 0.25 µg/mL (≈ 0.382 µM) in [17]. In addition, the MIC with P. aeruginosa PA 14 was 1 µg/mL (≈ 1.53 µM); against P. aeruginosa ATCC 35151 (ATCC35151) it was not above 0.125 µg/mL; in the experiment on A. baumannii ATCC 17978, 0.5 µg/mL (≈ 0.765 µM); with E. coli ATCC 25922 (ATCC25922), not above 0.125 µg/mL; in [5], 0.5 µg/mL (≈ 0.765 µM); in experiment [6], 8 µg/mL (≈ 12.2 µM). Further, the MIC in experiment [7] was 8 µg/mL (≈ 12.2 µM); in [8], 4 µg/mL (≈ 6.12 µM); in experiment [9], 4 µg/mL (≈ 6.12 µM); in experiment [10], 2 µg/mL (≈ 3.06 µM); in experiment [11], 4 µg/mL (≈ 6.12 µM); in experiment [12] (setting [21]), 4 µg/mL (≈ 6.12 µM). Moreover, the MIC in experiment [13] is 4 µg/mL (≈ 6.12 µM); in [14], 4 µg/mL (≈ 6.12 µM); in experiment [15] it was 4 µg/mL (≈ 6.12 µM); in experiment [16] (setting [22]) it was 8 µg/mL (≈ 12.2 µM).
`CC1(C)[C@H](NC(=O)/C(=N\OCCOc2ccc3c(c2)CC[N+](C)(CCCN)C3)c2csc(N)n2)C(=O)N1OS(=O)(=O)[O-]` (some centres unmarked) [Compound 5]: the MIC was determined as 1 µg/mL (≈ 1.6 µM) in [5]; 16 µg/mL (≈ 25.6 µM) in [6]; 16 µg/mL (≈ 25.6 µM) in experiment [7]; 8 µg/mL (≈ 12.8 µM) in [8]; 8 µg/mL (≈ 12.8 µM) in experiment [9]; 2 µg/mL (≈ 3.2 µM) in experiment [10]. Besides, the MIC in experiment [11], in experiment [12] (setting [21]), in [13], in [14], in experiment [15] and in experiment [16] (setting [22]) was 16 µg/mL (≈ 25.6 µM) each time.
Regarding `CC1(C)[C@H](NC(=O)/C(=N\OCCOc2ccc3c(c2)CCN(CCCN)C3)c2csc(N)n2)C(=O)N1OS(=O)(=O)O` [Compound 6], the MIC in experiment [1] is 16 µg/mL (≈ 26.2 µM); in experiment [2] it was 4 µg/mL (≈ 6.54 µM); in experiment [3], 4 µg/mL (≈ 6.54 µM); in experiment [4] (setting [18]), 0.25 µg/mL (≈ 0.409 µM); against E. coli MG1655Δtol C, not above 0.125 µg/mL; in experiment [17] it was 1 µg/mL (≈ 1.63 µM). Further, the MIC in the experiment on P. aeruginosa PA 14 was 16 µg/mL (≈ 26.2 µM); with P. aeruginosa ATCC 35151 (setting [19]), 0.5 µg/mL (≈ 0.817 µM); in the experiment with A. baumannii ATCC 17978, 4 µg/mL (≈ 6.54 µM); in the experiment on E. coli ATCC 25922 (setting [20]), 0.5 µg/mL (≈ 0.817 µM); in experiment [5] it was 2 µg/mL (≈ 3.27 µM); in experiment [6] it was 8 µg/mL (≈ 13.1 µM). Also, the MIC in experiment [7] is 16 µg/mL (≈ 26.2 µM); in experiment [8], 8 µg/mL (≈ 13.1 µM); in [9], 8 µg/mL (≈ 13.1 µM); in experiment [10] it was 4 µg/mL (≈ 6.54 µM); in experiment [11], 8 µg/mL (≈ 13.1 µM); in [12] (setting [21]), 8 µg/mL (≈ 13.1 µM). Further, the MIC in [13], in [14], in experiment [15] and in [16] (setting [22]) was 8 µg/mL (≈ 13.1 µM) each time.
As to `C[C@@H](O)[C@H]1C(=O)N2C(C(=O)O)=C(SCCN=CN)C[C@H]12` [Imipenem, reference compound], the MIC was 0.25 µg/mL (≈ 0.835 µM) in [5]; 0.5 µg/mL (≈ 1.67 µM) in experiment [6]; 32 µg/mL (≈ 107 µM) in experiment [7]; 16 µg/mL (≈ 53.4 µM) in experiment [8]; 64 µg/mL (≈ 214 µM) in [9]; 32 µg/mL (≈ 107 µM) in [10]. Also, the MIC in experiment [11] was determined as 64 µg/mL (≈ 214 µM); in experiment [12] (ATCCBAA1793) it was 128 µg/mL (≈ 428 µM); in experiment [13] it was 32 µg/mL (≈ 107 µM); in experiment [14] it was 1 µg/mL (≈ 3.34 µM); in experiment [15], 64 µg/mL (≈ 214 µM); in experiment [16] (ATCCBAA1800), 128 µg/mL (≈ 428 µM).

What is called MIC is the lowest concentration that inhibits growth of the organism.
